# Experimental data as given in US5126366A, “Aminophenoxyalkyl derivatives of benzodioxan” (American Home Products Corporation, priority 1991, dated 1992).
# Read-outs that look alike come from different tables or passages of the source.
# Assays:
# [1] = tested on: synthesis of dopamine; assay: Inhibition of dopa accumulation in GBL/NSD-1015-treated rats (dopamine autoreceptor agonism; Walters and Roth); format: in vivo, rats (male, Sprague-Dawley); settings: sc, rat
# Text: The effect of the compounds of the invention on the synthesis of dopamine was established by the method of Walters and Roth, Naunyn-Schmiedeberg's Arch. […] Following perchloric acid extraction of the tissue, the extracts were placed over alumina columns to collect and concentrate dopa and other catechols. This eluate was then subjected to HPLC analysis using electrochemical detection to quantify the levels of dopa present. Dopamine autoreceptor agonists, under the conditions used above, inhibit dopa accumulation.
# [2] = tested on: mouse locomotor activity; assay: Reduction of mouse locomotor activity (Martin and Bendensky); format: in vivo, mice (male, CF-1); settings: horizontal activity counts 10 to 20 minutes after dosing; for ED50: ip, read-out: Hypolocomotion (ED50 mg/kg, ip)
# [3] = biological target: T1, serotonin 5-HT1A receptor (Rattus norvegicus, UniProt P19327); assay: Serotonin 5-HT1A receptor affinity, displacement of [3H]8-OHDPAT; format: binding; settings: for inhibition at 0.1 µM: read-out: Receptor Affinities 5-HT1A (% @ ( ) μM)
# T1 construct: following the procedure of Hall et al., J. Neurochem; 44, 1685 (1985); from tissue
# T1 sequence (P19327 1-422): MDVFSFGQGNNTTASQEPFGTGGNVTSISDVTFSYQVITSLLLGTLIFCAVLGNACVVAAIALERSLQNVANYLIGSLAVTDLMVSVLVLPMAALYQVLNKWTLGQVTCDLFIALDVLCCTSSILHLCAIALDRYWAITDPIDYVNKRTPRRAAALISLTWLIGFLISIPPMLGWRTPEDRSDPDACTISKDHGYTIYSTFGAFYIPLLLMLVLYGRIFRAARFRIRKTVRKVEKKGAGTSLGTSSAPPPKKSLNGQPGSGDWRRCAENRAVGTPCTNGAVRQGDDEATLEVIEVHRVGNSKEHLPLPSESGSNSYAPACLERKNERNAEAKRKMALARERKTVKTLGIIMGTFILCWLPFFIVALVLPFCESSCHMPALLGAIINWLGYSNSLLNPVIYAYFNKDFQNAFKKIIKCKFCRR
# Text: Affinity for the serotonin 5-HT1A receptor was established by testing the claimed compound's ability to displace [^3 H]8-OHDPAT (dipropylaminotetralin) from the 5-HT1A serotonin receptor following the procedure of Hall et al., J. Neurochem. 44, 1685 (1985). […] The anxiolytic activity of buspirone is believed to be, at least partially, due to its 5-HT1A receptor affinity (Vander Maclen et al., Eur. J. Pharmacol. 1986, 129 (1-2) 133-[…]).
# [4] = biological target: T2, dopamine D2 receptor (Rattus norvegicus, UniProt P61169); assay: Dopamine D2 receptor affinity, 3H-spiroperidol binding in homogenized limbic brain tissue
# T2 construct: homogenized limbic brain tissue is incubated with ^3 H-spiroperidol; from tissue; host or cells: homogenized limbic brain tissue
# [5] = tested on: 5-HT1A receptor; settings: cited from earlier work
# [6] = limbic (L) brain tissue, read-out: Dopa Accumulation (% inhib. @ 10 mg/kg, sc), limbic (L)
# [7] = striatal (S) brain tissue, read-out: Dopa Accumulation (% inhib. @ 10 mg/kg, sc), striatal (S)
# T2 sequence (P61169 whole entry): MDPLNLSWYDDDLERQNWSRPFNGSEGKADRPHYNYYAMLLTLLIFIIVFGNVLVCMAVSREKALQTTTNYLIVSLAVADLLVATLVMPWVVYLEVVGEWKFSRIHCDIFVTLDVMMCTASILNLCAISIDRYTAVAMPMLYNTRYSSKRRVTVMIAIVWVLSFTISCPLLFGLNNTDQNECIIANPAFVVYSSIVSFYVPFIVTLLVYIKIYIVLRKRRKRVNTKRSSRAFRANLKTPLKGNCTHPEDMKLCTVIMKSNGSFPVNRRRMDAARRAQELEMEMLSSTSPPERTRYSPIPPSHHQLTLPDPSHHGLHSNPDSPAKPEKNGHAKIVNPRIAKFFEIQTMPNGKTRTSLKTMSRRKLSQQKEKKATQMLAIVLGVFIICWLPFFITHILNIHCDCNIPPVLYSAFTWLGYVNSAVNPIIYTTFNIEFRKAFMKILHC
smiles,measurement,setting,value
"Nc1cccc(OCCCNCC2COc3ccc(Cl)cc3O2)c1 (centres unmarked) [Example 13, N-[3-(3-Aminophenoxy)propyl]-2,3-dihydro-7-chloro-1,4-benzodioxin-2-methanamine]",inhibition at 10 mg/kg,[1]; [6],9.1%
"Nc1cccc(OCCCNCC2COc3ccccc3O2)c1 (centres unmarked) [Example 1, N-[3-(3-Aminophenoxy)propyl]-2,3-dihydro-1,4-benzodioxin-2-methanamine]",ED50,[2],0.38 mg/kg
same,IC50,[3]; read-out: Receptor Affinities 5-HT1A IC50,4 nM
same,IC50,[4]; read-out: Receptor Affinities D2 IC50,525 nM
same,inhibition at 10 mg/kg,[1]; [6],33%
same,inhibition at 10 mg/kg,[1]; [7],46%
"COc1ccc2c(c1)O[C@@H](CNCCCOc1cccc(N)c1)CO2 [Example 17, (S)-N-[3-(3-Aminophenoxy)propyl]-2,3-dihydro-7-methoxy-1,4-benzodioxin-2-methanamine]",inhibition at 10 mg/kg,[1]; [6],28%
"COc1cccc2c1OC(CNCCCOc1cccc(N)c1)CO2 (centres unmarked) [Example 11, N-[3-(3-Aminophenoxy)propyl]-2,3-dihydro-8-methoxy-1,4-benzodioxin-2-methanamine]",inhibition at 10 mg/kg,[1]; [6],13%
"Cc1c(O)ccc2c1OC(CNCCCOc1cccc(N)c1)CO2 (centres unmarked) [Example 19, N-[3-(3-Aminophenoxy)propyl]-2,3-dihydro-7-hydroxy-8-methyl-1,4-benzodioxin-2-methanamine]",inhibition at 10 mg/kg,[1]; [6],21%
"O=C1CC2(CCCC2)CC(=O)N1CCCCNCC1COc2ccccc2O1 (centres unmarked) [MDL 72832, 8-[4-(1,4-benzodioxan-2-ylmethylamino)butyl]-8-azaspiro[4.5]decane-7,9-dione]",5-HT1A receptor ligand character,"[5]; in words, Fozard et al.",selective and stereospecific
"Nc1cccc(OCCCNCC2COc3ccc(O)cc3O2)c1 (centres unmarked) [Example 3, N-[3-(3-Aminophenoxy)propyl]-2,3-dihydro-7-hydroxy-1,4-benzodioxin-2-methanamine]",ED50,[2]; Mus musculus,0.16 mg/kg
same,"Hypolocomotion (ED50 mg/kg, ip)",[2],0.15 mg/kg
same,inhibition at 10 mg/kg,[1]; [6],64%
same,inhibition at 10 mg/kg,[1]; [7],66%
"Nc1cccc(OCCCNCC2COc3c(O)cccc3O2)c1 (centres unmarked) [Example 6, N-[3-(3-Aminophenoxy)propyl]-2,3-dihydro-5-hydroxy-1,4-benzodioxin-2-methanamine]",inhibition at 10 mg/kg,[1]; [6],23%
same,inhibition at 10 mg/kg,[1]; [7],30%
"Nc1cccc(OCCCNC[C@@H]2COc3ccc(O)cc3O2)c1 [Example 7, (R)-N-[3-(3-Aminophenoxy)propyl]-2,3-dihydro-7-hydroxy-1,4-benzodioxin-2-methanamine]",ED50,[2]; Mus musculus,1.34 mg/kg
same,inhibition at 10 mg/kg,[1]; [6],27%
same,inhibition at 10 mg/kg,[1]; [7],19%
O=C1CC2(CCCC2)CC(=O)N1CCCCN1CCN(c2ncccn2)CC1 [buspirone],affinity for the 5-HT1A serotonin receptor subtype,"[5]; in words, standard for anxiolytic activity",potent affinity
"Nc1cccc(OCCCNCC2COc3cc4c(cc3O2)OCO4)c1 (centres unmarked) [Example 10, N-[3-(3-Aminophenoxy)propyl]-2,3-dihydro-6,7-methylenedioxy-1,4-benzodioxin-2-methanamine]",ED50,[2],1.8 mg/kg
same,inhibition at 0.1 µM,[3],54%
same,inhibition at 10 mg/kg,[1]; [6],70.9%
"COc1ccc2c(c1OC)OCC(CNCCCOc1cccc(N)c1)O2 (centres unmarked) [Example 15, N-[3-(3-Aminophenoxy)propyl]-2,3-dihydro-5,6-dimethoxy-1,4-benzodioxin-2-methanamine]",inhibition at 10 mg/kg,[1]; [6],7.6%
"Nc1cccc(OCCCNCC2COc3cccc(O)c3O2)c1 (centres unmarked) [Example 12, N-[3-(3-Aminophenoxy)propyl]-2,3-dihydro-8-hydroxy-1,4-benzodioxin-2-methanamine]",inhibition at 10 mg/kg,[1]; [6],17.4%
"Nc1cccc(OCCCNCC2COc3ccc(F)cc3O2)c1 (centres unmarked) [Example 16, N-[3-(3-Aminophenoxy)propyl]-2,3-dihydro-7-fluoro-1,4-benzodioxin-2-methanamine]",ED50,[2],1.4 mg/kg
same,inhibition at 0.1 µM,[3],87%
same,inhibition at 10 mg/kg,[1]; [6],59.9%
"COc1cccc2c1OCC(CNCCCOc1cccc(N)c1)O2 (centres unmarked) [Example 2, N-[3-(3-Aminophenoxy)propyl]-2,3-dihydro-5-methoxy-1,4-benzodioxin-2-methanamine]",inhibition at 10 mg/kg,[1]; [6],-22%
"O=C1CC2(CCCC2)CC(=O)N1CCCCNCC1COc2ccccc2O1 (single isomer, unassigned; (-)) [(-)-MDL 72832]",binding at the 5-HT1A receptor site relative to the dextrorotary isomer,"[5]; (-)-isomer versus dextrorotary isomer, Fozard et al.",32 times
"COc1cc2c(cc1OC)OC(CNCCCOc1cccc(N)c1)CO2 (centres unmarked) [Example 14, N-[3-(3-Aminophenoxy)propyl]-2,3-dihydro-6,7-dimethoxy-1,4-benzodioxin-2-methanamine]",inhibition at 10 mg/kg,[1]; [6],53.7%
"COc1ccc2c(c1)OC(CNCCCOc1cccc(N)c1)CO2 (centres unmarked) [Example 8, N-[3-(3-Aminophenoxy)propyl]-2,3-dihydro-7-methoxy-1,4-benzodioxin-2-methanamine]",inhibition at 0.1 µM,[3],95%
same,inhibition at 1 µM,"[4]; % at 1.0 μM, read-out: Receptor Affinities D2 (% @ ( ) μM)",48%
same,inhibition at 10 mg/kg,[1]; [6],42.9%
"Nc1cccc(OCCCNC[C@H]2COc3ccc(O)cc3O2)c1 [Example 4, (S)-N-[3-(3-Aminophenoxy)propyl]-2,3-dihydro-7-hydroxy-1,4-benzodioxin-2-methanamine]",ED50,[2]; Mus musculus,0.08 mg/kg
same,inhibition at 10 mg/kg,[1]; [6],70%
same,inhibition at 10 mg/kg,[1]; [7],71%
"Nc1cccc(OCCCNCC2COc3cc(O)ccc3O2)c1 (centres unmarked) [Example 5, N-[3-(3-Aminophenoxy)propyl]-2,3-dihydro-6-hydroxy-1,4-benzodioxin-2-methanamine]",inhibition at 10 mg/kg,[1]; [6],31%
same,inhibition at 10 mg/kg,[1]; [7],30%
"Nc1cccc(OCCCNC[C@H]2COc3ccccc3O2)c1 [Example 9, (S)-N-[3-(3-Aminophenoxy)propyl]-2,3-dihydro-1,4-benzodioxin-2-methanamine]",ED50,[2],0.19 mg/kg
same,inhibition at 0.1 µM,[3],100%
